According to ChEMBL document CHEMBL4118131, “Synthesis of 1,2,4-triazole-linked urea/thiourea conjugates as cytotoxic and apoptosis inducing agents” (Bioorg Med Chem Lett, 2018):
Calls of active or inactive are those of the source. No cut-off for these calls is given here.

How the values were obtained:
MDA-MB-231 = test: Cytotoxicity in human MDA-MB-231 cells assessed as reduction in cell viability incubated for 48 hrs by MTT assay; format: functional, cell-based; details: MDA-MB-231, 48 h
MCF7 [1] = test: Induction of apoptotic morphological changes in human MCF7 cells assessed as induction of membrane blebbing at 8 uM incubated for 48 hrs by AO/EB staining staining based fluorescence microscopy; format: functional, cell-based
MCF7 [2] = test: Induction of apoptosis in human MCF7 cells assessed as late apoptosis cells level at 12 uM incubated for 48 hrs by Annexin V and propidium iodide staining based flow cytometry (reference value: 7.4%); format: functional
MCF7 [3] = test: Cytotoxicity in human MCF7 cells assessed as reduction in cell viability incubated for 48 hrs by MTT assay; format: functional, cell-based; details: MCF7, 48 h
MCF7 [4] = test: Induction of apoptosis in human MCF7 cells assessed as early apoptosis cells level at 8 uM incubated for 48 hrs by Annexin V and propidium iodide staining based flow cytometry (reference value: 11.54%); format: functional
MCF7 [5] = test: Induction of apoptotic morphological changes in human MCF7 cells assessed as induction of DNA fragmentation at 8 uM incubated for 48 hrs by AO/EB staining staining based fluorescence microscopy; format: functional, cell-based
MCF7 [6] = test: Induction of apoptotic nuclear morphological changes in human MCF7 cells assessed as induction of cell shrinkage and round shape cells at 4 to 8 uM incubated for 48 hrs by DAPI nuclear staining based fluorescence microscopy; format: functional
A549 = test: Cytotoxicity in human A549 cells assessed as reduction in cell viability incubated for 48 hrs by MTT assay; format: functional, cell-based; details: A549, 48 h
MCF7 [7] = test: Induction of cell cycle arrest in human MCF7 cells assessed as accumulation at S phase at 8 uM incubated for 48 hrs by propidium iodide staining based flow cytometry (reference value: 12.28%); format: functional
MCF7 [8] = test: Induction of apoptosis in human MCF7 cells assessed as early apoptosis cells level at 12 uM incubated for 48 hrs by Annexin V and propidium iodide staining based flow cytometry (reference value: 11.54%); format: functional
MCF7 [9] = test: Induction of cell cycle arrest in human MCF7 cells assessed as accumulation at subG1 phase at 4 uM incubated for 48 hrs by propidium iodide staining based flow cytometry (reference value: 0.88%); format: functional
MCF7 [10] = test: Induction of apoptosis in human MCF7 cells assessed as viable cells level at 4 uM incubated for 48 hrs by Annexin V and propidium iodide staining based flow cytometry (reference value: 80.6%); format: functional
MCF7 [11] = test: Induction of apoptotic nuclear morphological changes in human MCF7 cells assessed as induction of horse shoe shaped nucleus at 12 uM incubated for 48 hrs by DAPI nuclear staining based fluorescence microscopy; format: functional, cell-based
DU-145 = test: Cytotoxicity in human DU145 cells assessed as reduction in cell viability incubated for 48 hrs by MTT assay; format: functional, cell-based; details: DU-145, 48 h
MCF7 [12] = test: Induction of apoptosis in human MCF7 cells assessed as viable cells level at 12 uM incubated for 48 hrs by Annexin V and propidium iodide staining based flow cytometry (reference value: 80.6%); format: functional
MCF7 [13] = test: Induction of cell cycle arrest in human MCF7 cells assessed as accumulation at G0/G1 phase at 4 uM incubated for 48 hrs by propidium iodide staining based flow cytometry (reference value: 53.01%); format: functional
[14] = Selectivity index, ratio of IC50 for cytotoxicity in human L-132 cells to IC50 for cytotoxicity in human MCF7 cells; format: toxicity, cell-based; details: L-132 cells and MCF7 cells, read-out: Ratio IC50
MCF7 [15] = test: Induction of apoptosis in human MCF7 cells incubated for 48 hrs by Annexin V and propidium iodide staining based flow cytometry (reference value: 7.4%); format: functional, cell-based
MCF7 [16] = test: Induction of late apoptosis in human MCF7 cells at 12 uM incubated for 48 hrs by AO/EB staining staining based fluorescence microscopy; format: functional, cell-based
L132 = test: Cytotoxicity in human L-132 cells assessed as reduction in cell viability incubated for 48 hrs by MTT assay; format: cell-based; details: L132, 48 h
MCF7 [17] = test: Induction of apoptosis in human MCF7 cells assessed as viable cells level at 8 uM incubated for 48 hrs by Annexin V and propidium iodide staining based flow cytometry (reference value: 80.6%); format: functional
MCF7 [18] = test: Induction of apoptosis in human MCF7 cells assessed as necrotic cells level at 12 uM incubated for 48 hrs by Annexin V and propidium iodide staining based flow cytometry (reference value: 0.46%); format: functional
MCF7 [19] = test: Induction of cell cycle arrest in human MCF7 cells assessed as accumulation at subG1 phase at 8 uM incubated for 48 hrs by propidium iodide staining based flow cytometry (reference value: 0.88%); format: functional
MCF7 [20] = test: Induction of apoptosis in human MCF7 cells assessed as late apoptosis cells level at 8 uM incubated for 48 hrs by Annexin V and propidium iodide staining based flow cytometry (reference value: 7.4%); format: functional
MCF7 [21] = test: Induction of apoptosis in human MCF7 cells assessed as early apoptosis cells level at 4 uM incubated for 48 hrs by Annexin V and propidium iodide staining based flow cytometry (reference value: 11.54%); format: functional
MCF7 [22] = test: Induction of cell cycle arrest in human MCF7 cells assessed as accumulation at G2/M phase at 8 uM incubated for 48 hrs by propidium iodide staining based flow cytometry (reference value: 32.51%); format: functional
MCF7 [23] = test: Induction of apoptotic nuclear morphological changes in human MCF7 cells assessed as induction of DNA fragmentation at 12 uM incubated for 48 hrs by DAPI nuclear staining based fluorescence microscopy; format: functional, cell-based
MCF7 [24] = test: Induction of cell cycle arrest in human MCF7 cells assessed as accumulation at G0/G1 phase at 8 uM incubated for 48 hrs by propidium iodide staining based flow cytometry (reference value: 53.01%); format: functional
MCF7 [25] = test: Induction of apoptosis in human MCF7 cells assessed as late apoptosis cells level at 4 uM incubated for 48 hrs by Annexin V and propidium iodide staining based flow cytometry (reference value: 7.4%); format: functional
MCF7 [26] = test: Induction of apoptotic morphological changes in human MCF7 cells assessed as induction of membrane blebbing at 4 uM incubated for 48 hrs by AO/EB staining staining based fluorescence microscopy; format: functional, cell-based
MCF7 [27] = test: Induction of apoptotic nuclear morphological changes in human MCF7 cells incubated for 48 hrs by DAPI nuclear staining based fluorescence microscopy; format: functional, cell-based
B16-F10 = test: Cytotoxicity in mouse B16/F10 cells assessed as reduction in cell viability incubated for 48 hrs by MTT assay; format: functional, cell-based; details: B16-F10, 48 h
MCF7 [28] = test: Induction of cell cycle arrest in human MCF7 cells assessed as accumulation at G2/M phase at 4 uM incubated for 48 hrs by propidium iodide staining based flow cytometry (reference value: 32.51%); format: functional
MCF7 [29] = test: Induction of apoptosis in human MCF7 cells assessed as necrotic cells level at 4 uM incubated for 48 hrs by Annexin V and propidium iodide staining based flow cytometry (reference value: 0.46%); format: functional
MCF7 [30] = test: Inhibition of colony formation in human MCF7 cells assessed as reduction in colony count incubated for 24 hrs by crystal violet staining based clonogenic cell reproduction assay; format: functional
MCF7 [31] = test: Induction of apoptosis in human MCF7 cells assessed as necrotic cells level at 8 uM incubated for 48 hrs by Annexin V and propidium iodide staining based flow cytometry (reference value: 0.46%); format: functional
MCF7 [32] = test: Induction of cell cycle arrest in human MCF7 cells assessed as accumulation at S phase at 4 uM incubated for 48 hrs by propidium iodide staining based flow cytometry (reference value: 12.28%); format: functional
MCF7 [33] = test: Induction of apoptotic morphological changes in human MCF7 cells assessed as induction of chromatin condensation at 8 uM incubated for 48 hrs by AO/EB staining staining based fluorescence microscopy; format: functional, cell-based

With `N#Cc1ccc(CN(C(=S)Nc2cc(C(F)(F)F)cc(C(F)(F)F)c2)n2cnnc2)cc1` the IC50 (MDA-MB-231) was 9.28 µM, the Activity (MCF7 [1]) was “Active” and the Activity (MCF7 [2]) was 38.35%. The IC50 (MCF7 [3]) was 7.22 µM, the Activity (MCF7 [4]) was 9.63% and the Activity (MCF7 [5]) was “Active”. For the same molecule, the Activity (MCF7 [6]) was “Active”, the IC50 (A549) was 9.39 µM and the Activity (MCF7 [7]) was 10.13%. The Activity (MCF7 [8]) was 7.53%, the Activity (MCF7 [9]) was 1.18% and the Activity (MCF7 [10]) was 62.98%. The Activity (MCF7 [11]) was “Active”, the IC50 (DU-145) was 11.8 µM and the Activity (MCF7 [12]) was 44.86%. The Activity (MCF7 [13]) was 61.18%, the selectivity ratio [14] was 2 and the Activity (MCF7 [15]) was “Dose-dependent effect”. For the same molecule, the Activity (MCF7 [16]) was “Active”, the IC50 (L132) was 15.2 µM and the Activity (MCF7 [17]) was 62.98%. The Activity (MCF7 [18]) was 9.26%, the Activity (MCF7 [19]) was 3.57% and the Activity (MCF7 [20]) was 24.61%. The Activity (MCF7 [21]) was 9.63%, the Activity (MCF7 [22]) was 14.34% and the Activity (MCF7 [23]) was “Active”. For the same molecule, the Activity (MCF7 [24]) was 69.97%, the Activity (MCF7 [25]) was 24.61% and the Activity (MCF7 [26]) was “Active”. The Activity (MCF7 [27]) was “Dose-dependent effect”, the IC50 (B16-F10) was 4.51 µM and the Activity (MCF7 [28]) was 25.01%. For the same molecule, the Activity (MCF7 [29]) was 2.78%, the inhibition (MCF7 [30]) was “Dose-dependent effect” and the Activity (MCF7 [31]) was 2.78%. The Activity (MCF7 [32]) was 11.33% and the Activity (MCF7 [33]) was “Active”.
